Results on 16 compounds are retold here after patent US20240254129A1, “HETEROCYCLIC COMPOUNDS AND USES THEREOF” (Kumquat Biosciences Inc., priority 2021, published 2024).

In assay [1] the target is GST-tagged K-Ras mutant / His-tagged hSOS1 (Homo sapiens, UniProt P01116). Kind of assay: HTRF assay, K-Ras mutant / SOS1 interaction. The note with it: read-out: IC50 against mutant Kras. The assay is classed as binding. The source says:
(§1) This assay can be also used to assess a selective inhibition of a mutant Ras protein relative to a wildtype, or relative to a different mutant Ras protein. For example, the equilibrium interaction of wildtype Kras or K-Ras mutant (e.g., wildtype or a mutant thereof including those mentioned in Example 6) with SOS1 (e.g., hSOS1) can be assessed as a proxy or an indication for a subject compound's ability to bind and inhibit Ras protein. HTRF assay detects from (i) a fluorescence resonance energy transfer (FRET) donor (e.g., antiGST-Europium) that is bound to GST-tagged K-Ras mutant to (ii) a FRET acceptor (e.g., anti-6His-XL665) bound to a His-tagged hSOS1.
(§2) The assay buffer can contain ˜5 mM HEPES pH 7.4, ˜150 mM NaCl, ˜ 1 mM DTT, 0.05% BSA and 0.0025% (v/v) Igepal. A Ras working solution is prepared in an assay buffer containing typically a suitable amount of the protein construct (e.g., GST-tagged K-Ras mutant) and the FRET donor (e.g., antiGST-Eu(K) from Cisbio, France). A SOS1 working solution is prepared in an assay buffer containing suitable amount of the protein construct (e.g., His-hSOS1) and the FRET acceptor (e.g., anti-6His-XL665 from Cisbio, France). A suitable amount of the protein construct will depend on the range of activity or range of IC50 values being detected or under investigation. For detecting IC50 within a range of 500 nM, the protein constructs of the same range of molarity can be utilized.
(§3) A fixed volume of DMSO with or without test compound is transferred into a 384-well plate. Ras working solution is added to all wells of the test plate. SOS1 working solution is added to all wells except for those that are subsequently filled the inhibitor control solution. Upon incubation for about 10 minutes or longer, the fluorescence is measured with a M1000Pro plate reader (Tecan) using HTRF detection (excitation 337 nm, emission 1: 620 nm, emission 2: 665 nm). Compounds are tested in duplicates at different concentrations (for example, 10 μM, 2.5 μM, 0.63 μM, 0.16 μM, 0.04 µM, 0.01 μM test compound). The ratiometric data (i.e., emission 2 divided by emission 1) is used to calculate IC50 values against Ras using GraphPad Prism (GraphPad software). Following this general procedure, samples were tested with or without a subject compound disclosed herein including compounds exemplified in Table 1 to assess their abilities to inhibit K-Ras signaling or their respective IC50 values against a given Ras protein (e.g., a given mutant K-Ras) of interest.
A general note: Time-resolved FRET reads energy transfer from a long-lived donor to a nearby acceptor.

The next assay concerns the target T1, wildtype Kras / hSOS1 (Homo sapiens, UniProt P01116).
T1 construct: made in house; host or cells: E. coli BL21 (DE3)
Kind of assay: HTRF assay, wildtype Kras / SOS1 interaction. The assay is classed as binding. As to conditions: read-out: IC50 against wildtype Kras.
Excerpt: as §1, §2, §3

Setting [2] is: compound nos. 102-196, general methodology of example 5.

Molecules are shown by their SMILES. Like-named read-outs stand apart in the source and are kept apart here.

Chain of GST-tagged K-Ras mutant / His-tagged hSOS1 (P01116 whole entry G12D, form open): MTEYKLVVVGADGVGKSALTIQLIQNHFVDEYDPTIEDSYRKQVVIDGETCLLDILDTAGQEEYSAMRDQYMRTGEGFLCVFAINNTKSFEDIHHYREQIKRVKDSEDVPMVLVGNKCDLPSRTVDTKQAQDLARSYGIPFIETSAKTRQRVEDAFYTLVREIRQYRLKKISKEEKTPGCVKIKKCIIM
T1 sequence (P01116 1-188 isoform P01116-2): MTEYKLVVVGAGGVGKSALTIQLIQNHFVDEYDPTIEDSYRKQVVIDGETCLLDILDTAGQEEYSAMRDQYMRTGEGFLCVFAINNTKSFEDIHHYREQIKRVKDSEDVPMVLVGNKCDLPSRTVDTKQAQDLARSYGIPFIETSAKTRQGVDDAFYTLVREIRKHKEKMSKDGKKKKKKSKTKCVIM

Take `Cc1cc2[nH]ncc2c(-c2c(Cl)cc3c(N4CC5CCC(C4)N5)nc(OC[C@@]45CCCN4C[C@H](F)C5)nc3c2F)c1Cl` [Compound 425, 4-(3,8-diazabicyclo[3.2.1]-octan-3-yl)-6-chloro-7-(5-chloro-6-methyl-1H-indazol-4-yl)-8-fluoro-2-(((2R,7aS)-2-fluorotetrahydro-1H-pyrrolizin-7a(5H)-yl)meth-oxy)quinazoline]: the IC50 was > 500 nM in assay [1] (compound nos. 401-703) and < 500 nM at wildtype Kras / hSOS1 (compound nos. 401-703).
For `Fc1c(-c2cccc(-c3ccccc3)c2)c(Cl)cc2c(N3CCCCCC3)nc(OCC34CCCN3CCC4)nc12` [Compound 482, 7-([1,1′-biphenyl]-3-yl)-4-(azepan-1-yl)-6-chloro-8-fluoro-2-((tetrahydro-1H-pyrrolizin-7a(5H)-yl)meth-oxy)quinazoline] the same measures were > 500 nM and < 500 nM.
For the compound `Nc1nc2c(-c3c(Cl)cc4c(N5CCCCC56CNC6)nc(OC[C@@]56CCCN5C[C@H](F)C6)nc4c3F)ccc(F)c2s1` [Compound 629, 4-(6-chloro-8-fluoro-2-(((2R,7aS)-2-fluorotetra-hydro-1H-pyrrolizin-7a(5H)-yl)methoxy)-4-(2,5-diaza-spiro[3.5]nonan-5-yl)quin-azolin-7-yl)-7-fluorobenzo-[d]thiazol-2-amine], the IC50 (in assay [1] (compound nos. 401-703); at wildtype Kras / hSOS1 (compound nos. 401-703)) was > 500 nM throughout.
Consider `Fc1c(N2CCCCc3ccccc32)ccc2c(N3CCCCCC3)nc(OCC34CCCN3CCC4)nc12` [Compound 548, 1-(4-(azepan-1-yl)-8-fluoro-2-((tetrahydro-1H-pyrrol-izin-7a(5H)-yl)methoxy)-quinazolin-7-yl)-2,3,4,5-tetrahydro-1H-benzo[b]-azepine], for which the IC50 (in assay [1] (compound nos. 401-703); on wildtype Kras / hSOS1 (compound nos. 401-703)) was > 500 nM each time.
Consider `CN1CCC[C@H]1COc1nc(N2CCN(C(=O)CN)CC(F)(F)C2)c2cc(Cl)c(-c3cccc4sc(N)nc34)c(F)c2n1` [Compound 141, 2-amino-1-(4-(7-(2-amino-benzo[d]thiazol-4-yl)-6-chloro-8-fluoro-2-(((S)-1-methylpyrrolidin-2-yl)meth-oxy)quinazolin-4-yl)-6,6-difluoro-1,4-diazepan-1-yl)-ethan-1-one], for which the IC50 is > 500 nM in assay [1] (setting [2]) and < 500 nM at wildtype Kras / hSOS1 (setting [2]).
As for `N#CC1CCCN(c2nc(OCC34CCCN3CCC4)nc3c(F)c(-c4ccc(F)c5sc(N)nc45)c(Cl)cc23)CC1` (centres unmarked) [Compound 172, 1-(7-(2-amino-7-fluoro-benzo[d]thiazol-4-yl)-6-chloro-8-fluoro-2-((tetra-hydro-1H-pyrrolizin-7a(5H)-yl)methoxy)-quinazolin-4-yl)azepane-4-carbonitrile], the IC50 (in assay [1] (setting [2]); on wildtype Kras / hSOS1 (setting [2])) was < 500 nM each time.
Turning to `Cc1ccc(C(N)=O)cc1-c1c(Cl)cc2c(N3CC4CCC(C3)N4)nc(OCC34CCCN3CCC4)nc2c1F` [Compound 417, 3-(4-(3,8-diazabicyclo-[3.2.1]octan-3-yl)-6-chloro-8-fluoro-2-((tetrahydro-1H-pyrrolizin-7a(5H)-yl)meth-oxy)quinazolin-7-yl)-4-methylbenzamide], the IC50 in assay [1] (compound nos. 401-703) is > 500 nM; at wildtype Kras / hSOS1 (compound nos. 401-703) it was < 500 nM.
As for `N#Cc1c(N)sc2c(F)ccc(-c3c(Cl)cc4c(N5CC6CCC(C5)O6)nc(OC[C@@]56CCCN5C[C@H](F)C6)nc4c3F)c12` [Compound 583, 4-(4-(8-oxa-3-azabicyclo-[3.2.1]-octan-3-yl)-6-chloro-8-fluoro-2-(((2R,7aS)-2-fluorotetrahydro-1H-pyrrol-izin-7a(5H)-yl)methoxy)-quinazolin-7-yl)-2-amino-7-fluorobenzo[b]thiophene-3-carbonitrile], the IC50 in assay [1] (compound nos. 401-703) was < 500 nM; on wildtype Kras / hSOS1 (compound nos. 401-703), > 500 nM.
On to `CN1CCC[C@H]1COc1nc(N2CCC(O)C(F)CC2)c2cc(Cl)c(-c3cccc4sc(N)nc34)c(F)c2n1` (stereo partly drawn) [Compound 466, 1-(7-(2-aminobenzo[d]-thiazol-4-yl)-6-chloro-8-fluoro-2-(((S)-1-methylpyr-rolidin-2-yl)methoxy)quin-azolin-4-yl)-5-fluoroazepan-4-ol], for which the IC50 (in assay [1] (compound nos. 401-703); at wildtype Kras / hSOS1 (compound nos. 401-703)) was < 500 nM each time.
Regarding `CN1CCC[C@H]1COc1nc(N2CCNCC3(CC3)C2)c2cc(Cl)c(-c3cccc4sc(N)nc34)c(F)c2n1` [Compound 128, 4-(6-chloro-8-fluoro-2-(((S)-1-methylpyrrolidin-2-yl)-methoxy)-4-(5,8-diazaspiro-[2.6]nonan-5-yl)quinazolin-7-yl)benzo[d]thiazol-2-amine], the IC50 (in assay [1] (setting [2]); on wildtype Kras / hSOS1 (setting [2])) was > 500 nM each time.
For `Cc1ccc2[nH]nc(N)c2c1-c1c(Cl)cc2c(N3CCNCC(F)(F)C3)nc(OC[C@@H]3CCCN3C)nc2c1F` [Compound 171, 4-(6-chloro-4-(6,6-difluoro-1,4-diazepan-1-yl)-8-fluoro-2-(((S)-1-methylpyrrolidin-2-yl)methoxy)quinazolin-7-yl)-5-methyl-1H-indazol-3-amine], the IC50 (in assay [1] (setting [2]); at wildtype Kras / hSOS1 (setting [2])) was > 500 nM each time.
As to `Cc1ccc2cn[nH]c2c1-c1c(Cl)cc2c(N3CC4CCC(C3)N4)nc(OC[C@@]34CCCN3C[C@H](F)C4)nc2c1F` [Compound 611, 4-(3,8-diazabicyclo[3.2.1]-octan-3-yl)-6-chloro-8-fluoro-2-(((2R,7aS)-2-fluorotetrahydro-1H-pyrrol-izin-7a(5H)-yl)methoxy)-7-(6-methyl-1H-indazol-7-yl)-quinazoline], the IC50 (in assay [1] (compound nos. 401-703); on wildtype Kras / hSOS1 (compound nos. 401-703)) was > 500 nM each time.
Regarding `Nc1nc2c(-c3c(Cl)cc4c(N5[C@@H]6CC[C@H]5CNC6)nc(OC[C@@]56CCCN5C[C@H](F)C6)nc4c3F)ccc(F)c2s1` [Compound 301, 4-(4-((1R,5S)-3,8-diaza-bicyclo[3.2.1]octan-8-yl)-6-chloro-8-fluoro-2-(((2R,7aS)-2-fluorotetra-hydro-1H-pyrrolizin-7a(5H)-yl)methoxy)quinazolin-7-yl)-7-fluorobenzo[d]thiazol-2-amine], the IC50 (in assay [1] (compound nos. 301-306); on wildtype Kras / hSOS1 (compound nos. 301-306)) was < 1500 nM in each case.
As to `N#CCC1CNCCN(c2nc(OCC34CCCN3CCC4)nc3c(F)c(-c4ccc(F)c5sc(N)nc45)c(Cl)cc23)C1` (centres unmarked) [Compound 188, 2-(1-(7-(2-amino-7-fluoro-benzo[d]thiazol-4-yl)-6-chloro-8-fluoro-2-((tetra-hydro-1H-pyrrolizin-7a(5H)-yl)methoxy)quin-azolin-4-yl)-1,4-diazepan-6-yl)acetonitrile], the IC50 in assay [1] (setting [2]) was < 500 nM.
Regarding `CN1CCC[C@H]1COc1nc(N2CCCC(NC3CC3)CC2)c2cc(Cl)c(-c3cccc4sc(N)nc34)c(F)c2n1` (stereo partly drawn) [Compound 590, 4-(6-chloro-4-(4-(cycloprop-ylamino)azepan-1-yl)-8-fluoro-2-(((S)-1-methylpyr-rolidin-2-yl)methoxy)quin-azolin-7-yl)benzo[d]thiazol-2-amine], in assay [1] (compound nos. 401-703), the IC50 was > 500 nM.
Take `CN1CCC[C@H]1COc1nc(N2CCC(O)C(F)CC2)c2cc(Cl)c(-c3cccc4sc(N)nc34)c(F)c2n1` (stereo partly drawn) [Compound 675, 1-(7-(2-aminobenzo[d]-thiazol-4-yl)-6-chloro-8-fluoro-2-(((S)-1-methyl-pyrrolidin-2-yl)methoxy)-quinazolin-4-yl)-5-fluoro-azepan-4-ol]: on wildtype Kras / hSOS1 (compound nos. 401-703), the IC50 is > 500 nM.

Usually IC50 stands for the concentration needed to halve the response being measured.
